{
  "source": "patent EP4480314A1",
  "about": "“BENEFICIAL SALTS FOR ENHANCING BIOCONTROL EFFICACY OF FUNGAL SPORES” (priority 2023, dated 2024)",
  "key": {"[1]": {"details": "cited from earlier work"}, "Bemisia tabaci [2]": {"test_system": "Bemisia tabaci", "test": "Insecticidal activity against white flies on single-leaf cotton plants, spray application (Example 1, spores of C. javanica strain Apopka 97)", "type": "in vivo", "design": "expected control (Colby) less than the observed level of control: concentration or dose not given beside the values", "details": "for expected control (Colby) less than the observed level of control: in composition with 1,0E+07 spores/ml C. javanica Apopka 97; for Abbott efficacy: spores 1,0E+07 s/ml, cotton, twelve days after treatment, control pure water; for White fly mortality: composition of spores and salt compared with spores alone or the salt alone"}, "white flies": {"test_system": "white flies", "details": "spores of C. fumosorosea supplemented with low concentrations of the acid in the spray liquid; PCT/EP2022/086495; cited from earlier work"}, "Bemisia tabaci [3]": {"test_system": "Bemisia tabaci", "test": "Insecticidal activity against white flies on bean plants (Phaseolus vulgaris), microsprayer application (Example 2, spores of C. javanica strain GF 511)", "type": "in vivo", "experimental": "For testing insecticidal activity against white flies, 9-day-old plants (Phaseolus vulgaris cv. Pérola) with two primary leaves grown with Oxisol (2 L) with fertilizer NPK 5-30-15 were kept in a screenhouse covered with a fine screen fabric (50 mesh). Adult-infested plants with Bemisia tabaci were shaken and placed next to pest-free bean plants (9 days old with two primary leaves) for 6 to 8h to allow oviposition. This exposure provided more than 200 eggs per leaf. Afterwards the plants were transferred to a clean and insect-free room and incubated at 25°C until hatching and development of immobile N2 nymphal stages (10 to 12 days after infestation). Per treatment, seven pots with four bean plants in the two-leave stage were used as biological replicates. The experiment was conducted in a randomized block design in five screenhouse benches, one for each repetition, with the treatments randomized within the block.\nBefore spraying, whitefly nymphs were checked for good coverage on the leaves and the infected plants were sprayed with the prepared solutions as detailed above. […] The amount is adjusted in function of the size of the primary leaves in order to ensure a good coverage. Afterwards, the plants are incubated under controlled conditions (30 °C and 40 % RH). Fourteen days after treatment, one plant/pot (two leaves per treatment) were destructively evaluated for insect mortality. Nymphal mortality was assessed under a dissecting stereomicroscope (Leica) at x40 magnification. For confirming the fungal infection, a small red dot was marked on the leaf next to the dead nymphs. The leaves were then incubated inside Gerbox box with a wet cotton added to the leaf petiole for four days at room temperature. The dead marked nymphs presenting sporulation (i.e., mycosed nymphs) were considered infected by the fungus."}, "[4]": {"details": "cited from earlier work", "remark": "listed apart in the source"}, "[5]": {"details": "Table 2, citric acid 0,05%, ammonium citrate di-basic 0,06%, potassium citrate 0,08%"}, "[6]": {"details": "Table 1, citric acid 0,1%, glutamic acid monosodic salt 0,08%"}},
  "data": [
    {"smiles": "O=C(O)c1ccnc(C(=O)O)c1", "note": "[Lutidinic acid]", "values": [
      {"measurement": "pka(1)", "setting": "[1]", "value": "2,17"}
    ]},
    {"smiles": "O=C([O-])CC(O)(CC(=O)[O-])C(=O)[O-].[K+].[K+].[K+]", "note": "[potassium citrate]", "values": [
      {"measurement": "expected control (Colby) less than the observed level of control", "setting": "Bemisia tabaci [2]; Table 2", "value": "11,7%"},
      {"measurement": "Abbott efficacy", "setting": "Bemisia tabaci [2]; [5]", "value": "1,74"},
      {"measurement": "White fly mortality", "setting": "Bemisia tabaci [2]", "value": "significantly and synergistically higher"}
    ]},
    {"smiles": "O=C(O)c1cccc(C(=O)O)n1", "note": "[Dipicolinic acid]", "values": [
      {"measurement": "efficacy of this entomopathogenic fungus against white flies", "setting": "white flies", "value": "increase the efficacy"}
    ]},
    {"smiles": "CC(C)[C@H](N)C(=O)O", "note": "[Valine]", "values": [
      {"measurement": "pka(1)", "setting": "[1]", "value": "2,39"}
    ]},
    {"smiles": "O=C(O)c1ccc(C(=O)O)nc1", "note": "[Isocinchomeronic acid]", "values": [
      {"measurement": "pka(1)", "setting": "[1]", "value": "2,31"}
    ]},
    {"smiles": "N[C@@H](CCC(=O)O)C(=O)[O-].[Na+]", "note": "[glutamic acid monosodic salt, glutamic acid monosodium salt]", "values": [
      {"measurement": "expected control (Colby) less than the observed level of control", "setting": "Bemisia tabaci [2]; Table 1", "value": "26,44%"},
      {"measurement": "Abbott efficacy", "setting": "Bemisia tabaci [2]; [6]", "value": "-0,34"},
      {"measurement": "White fly mortality", "setting": "Bemisia tabaci [2]", "value": "significantly and synergistically higher"},
      {"measurement": "Abbott efficacy", "setting": "Bemisia tabaci [3]", "value": "7,57"},
      {"measurement": "expected control (Colby) less than the observed level of control", "setting": "Bemisia tabaci [3]", "value": "11,03%"}
    ]},
    {"smiles": "N[C@@H](C[SeH])C(=O)O", "note": "[Selenocysteine]", "values": [
      {"measurement": "water solubility (g/l) at room temperature", "setting": "[4]", "value": 400, "unit": "g/L"}
    ]},
    {"smiles": "O=C(O)c1ccccn1", "note": "[Picolinic acid]", "values": [
      {"measurement": "water solubility (g/l) at room temperature", "setting": "[4]", "value": 887, "unit": "g/L"},
      {"measurement": "pka(1)", "setting": "[1]", "value": "5,39"}
    ]},
    {"smiles": "O=C(O)c1cccnc1C(=O)O", "note": "[Chinolinic acid]", "values": [
      {"measurement": "water solubility (g/l) at room temperature", "setting": "[4]", "value": 10, "unit": "g/L"}
    ]},
    {"smiles": "CC[C@H](C)[C@H](N)C(=O)O", "note": "[Isoleucine]", "values": [
      {"measurement": "pka(1)", "setting": "[1]", "value": "2,32"}
    ]},
    {"smiles": "N[C@@H](Cc1ccccc1)C(=O)O", "note": "[Phenylalanine]", "values": [
      {"measurement": "water solubility (g/l) at room temperature", "setting": "[4]", "value": ">10", "unit": "g/L"}
    ]},
    {"smiles": "O=C(O)CC(C(=O)O)C(O)C(=O)O", "note": "(stereo not shown) [Isocitric acid]", "values": [
      {"measurement": "water solubility (g/l) at room temperature", "setting": "[4]", "value": 53, "unit": "g/L"}
    ]},
    {"smiles": "O=C(O)C=C(CC(=O)O)C(=O)O", "note": "[Aconitic acid]", "values": [
      {"measurement": "water solubility (g/l) at room temperature", "setting": "[4]", "value": 400, "unit": "g/L"},
      {"measurement": "pka(1)", "setting": "[1]", "value": "2,8"}
    ]},
    {"smiles": "O=C(O)CC(O)(CC(=O)O)C(=O)O", "note": "[citric acid, Citric acid, reference compound]", "values": [
      {"measurement": "expected control (Colby) less than the observed level of control", "setting": "Bemisia tabaci [2]; Table 1", "value": "11,63%"},
      {"measurement": "Abbott efficacy", "setting": "Bemisia tabaci [2]; [6]", "value": "9,86"},
      {"measurement": "expected control (Colby) less than the observed level of control", "setting": "Bemisia tabaci [2]; Table 2", "value": "24,27%"},
      {"measurement": "Abbott efficacy", "setting": "Bemisia tabaci [2]; [5]", "value": "7,88"},
      {"measurement": "Abbott efficacy", "setting": "Bemisia tabaci [3]; Table 3, spores 1,0E+07 s/ml, citric acid 0,05%, glutamic acid monosodium salt 0,08%, all with 0,05% Tween, bean plants, fourteen days after treatment, control Tween 80 (0.05% v/v)", "value": 3.56},
      {"measurement": "efficacy of this entomopathogenic fungus against white flies", "setting": "white flies", "value": "increase the efficacy"}
    ]},
    {"smiles": "O=C(O)CC(O)C(=O)O", "note": "(stereo not shown) [Malic acid]", "values": [
      {"measurement": "water solubility (g/l) at room temperature", "setting": "[4]", "value": 558, "unit": "g/L"}
    ]},
    {"smiles": "O=C(O)CCC(=O)C(=O)O", "note": "[alpha-ketoglutaric acid]", "values": [
      {"measurement": "water solubility (g/l) at room temperature", "setting": "[4]", "value": 100, "unit": "g/L"}
    ]},
    {"smiles": "N[C@@H](Cc1c[nH]c2ccccc12)C(=O)O", "note": "[Tryptophan]", "values": [
      {"measurement": "water solubility (g/l) at room temperature", "setting": "[4]", "value": "11,4 g/l"},
      {"measurement": "pka(1)", "setting": "[1]", "value": "2,46"}
    ]},
    {"smiles": "N.N.O=C(O)CC(O)(CC(=O)O)C(=O)O", "note": "[ammonium citrate di-basic]", "values": [
      {"measurement": "expected control (Colby) less than the observed level of control", "setting": "Bemisia tabaci [2]; Table 2", "value": "27,89%"},
      {"measurement": "Abbott efficacy", "setting": "Bemisia tabaci [2]; [5]", "value": "6,34"},
      {"measurement": "White fly mortality", "setting": "Bemisia tabaci [2]", "value": "significantly and synergistically higher"}
    ]}
  ]
}
